Assay results as given in ChEMBL document CHEMBL4765362, “Thirty Years of HDAC Inhibitors: 2020 Insight and Hindsight” (J Med Chem, 2020).
pIC50, pKd, pKi: −log10 of the molar value.

Experiments:
[1] = Inhibition of LSD1-HDAC1-CoREST (unknown origin) using Boc-(Ac)Lys-AMC as substrate incubated for 20 mins by fluorescence-based assay; parameters: species or system Homo sapiens
Histone deacetylase 9 [2] = target: T1, Histone deacetylase 9 (Homo sapiens, UniProt Q9UKV0); test: Inhibition of human HDAC9 expressed in baculovirus infected sf9 cells using (Boc-Lys(trifluoroacetyl)-AMC) as substrate by fluorescence-based assay
Histone deacetylase 5 [3] = target: T2, Histone deacetylase 5 (Homo sapiens, UniProt Q9UQL6); test: Inhibition of human HDAC5 expressed in baculovirus infected sf9 cells using (Boc-Lys(trifluoroacetyl)-AMC) as substrate by fluorescence-based assay
[4] = target: T3, Polyamine deacetylase HDAC10 (Homo sapiens, UniProt Q969S8); test: Inhibition of HDAC10 (unknown origin)
T3 sequence (Q969S8 whole entry): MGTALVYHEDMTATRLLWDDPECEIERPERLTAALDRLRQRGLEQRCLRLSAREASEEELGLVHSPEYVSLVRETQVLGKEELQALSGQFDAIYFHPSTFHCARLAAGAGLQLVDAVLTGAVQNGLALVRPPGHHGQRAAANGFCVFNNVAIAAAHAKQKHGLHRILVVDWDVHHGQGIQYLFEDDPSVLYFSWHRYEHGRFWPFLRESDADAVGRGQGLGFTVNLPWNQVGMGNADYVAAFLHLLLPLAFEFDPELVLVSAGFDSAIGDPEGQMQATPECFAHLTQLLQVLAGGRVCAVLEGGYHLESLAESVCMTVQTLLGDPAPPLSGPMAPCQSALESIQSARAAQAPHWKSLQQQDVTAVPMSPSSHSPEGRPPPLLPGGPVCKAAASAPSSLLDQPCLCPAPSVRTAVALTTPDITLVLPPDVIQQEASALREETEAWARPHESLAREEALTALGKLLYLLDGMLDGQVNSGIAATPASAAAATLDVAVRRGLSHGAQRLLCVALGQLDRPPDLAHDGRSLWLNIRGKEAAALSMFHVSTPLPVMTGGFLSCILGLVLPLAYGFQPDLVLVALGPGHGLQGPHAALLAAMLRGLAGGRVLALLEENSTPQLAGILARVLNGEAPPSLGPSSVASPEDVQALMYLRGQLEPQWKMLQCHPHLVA

Histone deacetylase 2 [5] = target: T4, Histone deacetylase 2 (Homo sapiens, UniProt Q92769); test: Inhibition of human HDAC2 expressed in Sf9 cells using Ac-Leu-Gly-Lys(Ac)-AMC as substrate measured every 30 secs for 60 mins by fluorescence-based assay
Histone deacetylase 1 [6] = target: T5, Histone deacetylase 1 (Homo sapiens, UniProt Q13547); test: Inhibition of HDAC1 (unknown origin) using Ac-Leu-Gly-Lys(Ac)-AMC as substrate measured every 30 secs for 60 mins by fluorescence-based assay
[7] = target: Histone deacetylase 3/Nuclear receptor corepressor 2 (HDAC3/NCoR2) (Homo sapiens, UniProt O15379); test: Inhibition of human C-terminal His-tagged HDAC3 (1 to 428 residues)/human N-terminal GST-tagged NcoR2 (395 to 489 residues) expressed in sf9 cells using Ac-Leu-Gly-Lys(Ac)-AMC as substrate measured every 30 secs for 60 mins by fluorescence-based assay
Histone deacetylase 1 [8] = target: T5, Histone deacetylase 1; test: Inhibition of HDAC1 (unknown origin)
Histone deacetylase 2 [9] = target: T4, Histone deacetylase 2; test: Inhibition of HDAC2 (unknown origin)
Histone deacetylase 3 [10] = target: T6, Histone deacetylase 3 (Homo sapiens, UniProt O15379); test: Inhibition of HDAC3 (unknown origin)
[11] = target: T3, Polyamine deacetylase HDAC10; test: Inhibition of recombinant human HDAC10 (2 to 631 residues) expressed in baculovirus infected sf9 cells using Fluor-de-lys as substrate preincubated for 15 mins followed by substrate addition and measured after 60 mins by fluorescence method
Histone deacetylase 5 [12] = target: T2, Histone deacetylase 5; test: Inhibition of human HDAC5 using Boc-L-Lys-MCA as substrate preincubated for 15 mins followed by substrate addition and measured after 60 mins by fluorescence method
Histone deacetylase 4 [13] = target: T7, Histone deacetylase 4 (Homo sapiens, UniProt P56524); test: Inhibition of human HDAC4 expressed in baculovirus infected sf9 cells using Boc-L-Lys-MCA as substrate preincubated for 15 mins followed by substrate addition and measured after 60 mins by fluorescence method
Histone deacetylase 9 [14] = target: T1, Histone deacetylase 9; test: Inhibition of C-terminal His-tagged human HDAC9 (604 to 1066 residues) expressed in baculovirus infected sf9 cells using Boc-L-Lys-MCA as substrate preincubated for 15 mins followed by substrate addition and measured after 60 mins by fluorescence method
[15] = target: T8, Protein deacetylase HDAC6 (Homo sapiens, UniProt Q9UBN7); test: Inhibition of human HDAC6 using Boc-Lys(Ac)-AMC as substrate preincubated for 30 mins followed by substrate addition and measured after 60 mins by […]
T8 sequence (Q9UBN7 whole entry): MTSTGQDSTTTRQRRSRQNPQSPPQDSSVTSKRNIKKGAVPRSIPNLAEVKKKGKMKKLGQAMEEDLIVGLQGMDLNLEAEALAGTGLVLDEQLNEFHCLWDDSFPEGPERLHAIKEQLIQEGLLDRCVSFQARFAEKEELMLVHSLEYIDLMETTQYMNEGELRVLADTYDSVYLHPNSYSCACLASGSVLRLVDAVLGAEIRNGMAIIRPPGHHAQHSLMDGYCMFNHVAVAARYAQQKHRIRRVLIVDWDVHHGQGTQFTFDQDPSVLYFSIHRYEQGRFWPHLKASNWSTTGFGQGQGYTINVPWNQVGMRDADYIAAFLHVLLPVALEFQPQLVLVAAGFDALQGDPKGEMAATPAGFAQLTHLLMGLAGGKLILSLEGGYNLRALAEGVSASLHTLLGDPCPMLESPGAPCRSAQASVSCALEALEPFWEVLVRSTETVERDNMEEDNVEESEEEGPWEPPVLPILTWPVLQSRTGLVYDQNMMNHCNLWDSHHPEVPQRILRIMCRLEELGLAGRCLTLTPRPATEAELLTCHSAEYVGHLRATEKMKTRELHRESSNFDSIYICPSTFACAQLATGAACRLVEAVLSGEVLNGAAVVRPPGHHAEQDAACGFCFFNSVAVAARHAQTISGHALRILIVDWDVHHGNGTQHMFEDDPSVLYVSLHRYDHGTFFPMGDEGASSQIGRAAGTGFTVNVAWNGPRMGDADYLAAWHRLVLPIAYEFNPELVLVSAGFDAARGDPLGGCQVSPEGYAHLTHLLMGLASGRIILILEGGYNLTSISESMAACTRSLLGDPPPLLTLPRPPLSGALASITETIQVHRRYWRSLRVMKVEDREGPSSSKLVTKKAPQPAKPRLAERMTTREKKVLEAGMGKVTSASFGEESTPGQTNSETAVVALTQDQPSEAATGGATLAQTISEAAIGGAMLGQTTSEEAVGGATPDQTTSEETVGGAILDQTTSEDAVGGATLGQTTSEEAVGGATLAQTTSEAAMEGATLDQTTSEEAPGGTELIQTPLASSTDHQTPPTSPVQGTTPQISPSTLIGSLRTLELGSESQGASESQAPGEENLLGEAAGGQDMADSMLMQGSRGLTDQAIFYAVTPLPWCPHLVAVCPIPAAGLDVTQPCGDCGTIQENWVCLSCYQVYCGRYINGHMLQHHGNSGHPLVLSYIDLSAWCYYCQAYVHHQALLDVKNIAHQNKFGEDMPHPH

Histone deacetylase 3 [16] = target: T6, Histone deacetylase 3; test: Inhibition of human HDAC3 using Boc-Lys(Ac)-AMC as substrate preincubated for 30 mins followed by substrate addition and measured after 60 mins by […] assay
Histone deacetylase 1 [17] = target: T5, Histone deacetylase 1; test: Inhibition of human HDAC1 using Boc-Lys(Ac)-AMC as substrate preincubated for 30 mins followed by substrate addition and measured after 60 mins by […] assay
Histone deacetylase 4 [18] = target: T7, Histone deacetylase 4; test: Inhibition of human HDAC4 using Boc-Lys(tri-fluoracetyl)-AMC as substrate preincubated for 30 mins followed by substrate addition and measured after 60 mins by […] assay
Histone deacetylase 11 = target: T9, Histone deacetylase 11 (Homo sapiens, UniProt Q96DB2); test: Inhibition of human C-terminal Flag-tagged HDAC11 expressed in sf9 cells using Boc-Lys(Ac)-AMC as substrate preincubated for 10 mins followed by substrate addition by fluorometry
T9 sequence (Q96DB2 whole entry): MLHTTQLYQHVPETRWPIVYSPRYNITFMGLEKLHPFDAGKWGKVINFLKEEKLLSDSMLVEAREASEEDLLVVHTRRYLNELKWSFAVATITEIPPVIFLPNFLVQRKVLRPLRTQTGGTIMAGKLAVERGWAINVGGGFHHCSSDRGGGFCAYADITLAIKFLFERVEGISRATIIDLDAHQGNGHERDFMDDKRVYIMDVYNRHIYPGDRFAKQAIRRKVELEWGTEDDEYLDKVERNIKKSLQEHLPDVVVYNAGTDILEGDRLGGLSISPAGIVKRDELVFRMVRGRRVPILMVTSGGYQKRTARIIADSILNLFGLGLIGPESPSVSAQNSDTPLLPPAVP

Histone deacetylase 4 [19] = target: T7, Histone deacetylase 4; test: Binding affinity to human full length N-terminal GST-tagged HDAC4 by surface plasmon resonance analysis
Histone deacetylase 8 = target: T10, Histone deacetylase 8 (Homo sapiens, UniProt Q9BY41); test: Inhibition of recombinant human C-terminal His-tagged HDAC8 expressed in baculovirus infected sf9 cells using p53 (379 to 382 residues) (Arg-His-Lys(Ac)-Lys(Ac)) by fluorimetric assay
T10 sequence (Q9BY41 whole entry): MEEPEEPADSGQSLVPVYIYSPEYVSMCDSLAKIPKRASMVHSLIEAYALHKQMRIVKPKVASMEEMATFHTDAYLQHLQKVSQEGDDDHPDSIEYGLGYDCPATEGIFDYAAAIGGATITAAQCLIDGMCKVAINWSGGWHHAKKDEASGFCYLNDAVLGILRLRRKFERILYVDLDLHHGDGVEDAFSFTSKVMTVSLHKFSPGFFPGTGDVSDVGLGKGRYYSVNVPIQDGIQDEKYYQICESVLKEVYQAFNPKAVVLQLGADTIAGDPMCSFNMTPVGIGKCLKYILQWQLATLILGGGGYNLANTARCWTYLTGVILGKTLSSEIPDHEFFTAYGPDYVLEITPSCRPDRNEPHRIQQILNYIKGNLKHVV

[20] = target: T3, Polyamine deacetylase HDAC10; test: Inhibition of recombinant human N-terminal FLAG-tagged HDAC10 (2 to 631 residues) expressed in baculovirus infected sf9 cells using p53 (379 to 382 residues) (Arg-His-Lys(Ac)-Lys(Ac)) as substrate by fluorimetric assay

T7 sequence (P56524 whole entry, the tested form may be a part): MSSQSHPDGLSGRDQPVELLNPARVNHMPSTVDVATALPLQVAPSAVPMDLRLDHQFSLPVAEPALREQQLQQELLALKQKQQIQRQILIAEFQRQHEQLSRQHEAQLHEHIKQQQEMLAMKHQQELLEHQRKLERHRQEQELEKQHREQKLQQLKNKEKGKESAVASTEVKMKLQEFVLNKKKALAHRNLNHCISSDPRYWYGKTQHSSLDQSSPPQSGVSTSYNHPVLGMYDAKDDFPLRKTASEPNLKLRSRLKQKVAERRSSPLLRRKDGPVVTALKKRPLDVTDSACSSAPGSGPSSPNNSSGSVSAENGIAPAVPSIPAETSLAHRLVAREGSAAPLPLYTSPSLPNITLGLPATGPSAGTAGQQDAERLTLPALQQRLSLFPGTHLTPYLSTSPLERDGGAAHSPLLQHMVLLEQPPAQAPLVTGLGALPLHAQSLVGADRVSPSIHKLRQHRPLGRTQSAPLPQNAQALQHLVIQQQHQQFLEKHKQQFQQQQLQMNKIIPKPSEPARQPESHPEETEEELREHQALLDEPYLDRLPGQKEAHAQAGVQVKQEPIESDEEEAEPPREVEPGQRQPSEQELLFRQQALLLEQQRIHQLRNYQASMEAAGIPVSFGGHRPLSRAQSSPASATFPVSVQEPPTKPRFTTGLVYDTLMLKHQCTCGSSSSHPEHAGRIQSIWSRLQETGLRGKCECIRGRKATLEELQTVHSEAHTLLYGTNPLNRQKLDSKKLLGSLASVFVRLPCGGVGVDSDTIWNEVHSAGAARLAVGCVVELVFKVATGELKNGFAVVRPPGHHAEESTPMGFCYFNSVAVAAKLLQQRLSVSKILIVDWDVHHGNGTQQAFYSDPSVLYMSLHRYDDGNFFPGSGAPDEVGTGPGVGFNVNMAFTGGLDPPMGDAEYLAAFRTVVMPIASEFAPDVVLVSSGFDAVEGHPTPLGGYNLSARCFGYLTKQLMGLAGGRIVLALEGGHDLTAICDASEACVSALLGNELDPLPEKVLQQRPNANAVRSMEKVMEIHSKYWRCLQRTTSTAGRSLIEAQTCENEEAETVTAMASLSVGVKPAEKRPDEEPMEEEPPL
T2 sequence (Q9UQL6 whole entry): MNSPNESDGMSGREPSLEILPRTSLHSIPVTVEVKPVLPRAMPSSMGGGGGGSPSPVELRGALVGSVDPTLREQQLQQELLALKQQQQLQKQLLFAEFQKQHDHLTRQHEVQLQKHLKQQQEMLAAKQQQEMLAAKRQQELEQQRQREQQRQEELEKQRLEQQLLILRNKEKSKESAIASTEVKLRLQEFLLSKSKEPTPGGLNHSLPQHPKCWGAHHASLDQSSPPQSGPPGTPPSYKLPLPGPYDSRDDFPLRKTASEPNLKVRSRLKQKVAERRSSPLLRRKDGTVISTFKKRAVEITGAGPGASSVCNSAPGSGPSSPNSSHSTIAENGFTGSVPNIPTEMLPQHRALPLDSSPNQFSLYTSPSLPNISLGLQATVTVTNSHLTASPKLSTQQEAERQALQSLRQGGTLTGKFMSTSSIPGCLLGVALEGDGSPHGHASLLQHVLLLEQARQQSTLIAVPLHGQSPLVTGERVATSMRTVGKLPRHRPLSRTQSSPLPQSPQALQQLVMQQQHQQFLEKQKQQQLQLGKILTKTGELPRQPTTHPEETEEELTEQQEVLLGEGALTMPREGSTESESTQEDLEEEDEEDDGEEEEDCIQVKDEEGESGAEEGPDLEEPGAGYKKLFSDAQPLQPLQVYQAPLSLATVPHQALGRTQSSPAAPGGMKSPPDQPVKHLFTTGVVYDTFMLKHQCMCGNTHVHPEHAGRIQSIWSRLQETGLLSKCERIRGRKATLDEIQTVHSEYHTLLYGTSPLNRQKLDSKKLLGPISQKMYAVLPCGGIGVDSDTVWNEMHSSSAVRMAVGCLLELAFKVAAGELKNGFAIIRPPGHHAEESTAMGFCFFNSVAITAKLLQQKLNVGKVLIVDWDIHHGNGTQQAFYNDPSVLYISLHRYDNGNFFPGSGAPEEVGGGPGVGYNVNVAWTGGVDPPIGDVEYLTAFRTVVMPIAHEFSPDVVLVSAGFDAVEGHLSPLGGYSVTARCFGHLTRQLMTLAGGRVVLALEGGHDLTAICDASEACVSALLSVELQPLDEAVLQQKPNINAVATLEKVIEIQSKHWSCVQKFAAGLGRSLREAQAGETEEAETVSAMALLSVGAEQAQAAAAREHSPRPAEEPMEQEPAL
T5 sequence (Q13547 whole entry, the tested form may be a part): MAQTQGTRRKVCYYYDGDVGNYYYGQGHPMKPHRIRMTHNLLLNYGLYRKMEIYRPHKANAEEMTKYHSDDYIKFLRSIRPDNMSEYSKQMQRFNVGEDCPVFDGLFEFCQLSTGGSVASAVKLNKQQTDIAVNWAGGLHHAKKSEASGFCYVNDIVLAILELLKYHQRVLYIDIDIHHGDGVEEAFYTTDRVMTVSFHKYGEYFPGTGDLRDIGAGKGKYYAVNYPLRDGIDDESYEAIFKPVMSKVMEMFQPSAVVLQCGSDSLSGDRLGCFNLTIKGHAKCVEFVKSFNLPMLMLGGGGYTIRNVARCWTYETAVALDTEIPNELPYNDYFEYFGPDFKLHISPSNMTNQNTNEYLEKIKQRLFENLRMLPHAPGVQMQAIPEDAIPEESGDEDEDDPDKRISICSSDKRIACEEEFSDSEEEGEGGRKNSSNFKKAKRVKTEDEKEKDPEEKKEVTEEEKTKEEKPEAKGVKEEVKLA
T1 sequence (Q9UKV0 whole entry): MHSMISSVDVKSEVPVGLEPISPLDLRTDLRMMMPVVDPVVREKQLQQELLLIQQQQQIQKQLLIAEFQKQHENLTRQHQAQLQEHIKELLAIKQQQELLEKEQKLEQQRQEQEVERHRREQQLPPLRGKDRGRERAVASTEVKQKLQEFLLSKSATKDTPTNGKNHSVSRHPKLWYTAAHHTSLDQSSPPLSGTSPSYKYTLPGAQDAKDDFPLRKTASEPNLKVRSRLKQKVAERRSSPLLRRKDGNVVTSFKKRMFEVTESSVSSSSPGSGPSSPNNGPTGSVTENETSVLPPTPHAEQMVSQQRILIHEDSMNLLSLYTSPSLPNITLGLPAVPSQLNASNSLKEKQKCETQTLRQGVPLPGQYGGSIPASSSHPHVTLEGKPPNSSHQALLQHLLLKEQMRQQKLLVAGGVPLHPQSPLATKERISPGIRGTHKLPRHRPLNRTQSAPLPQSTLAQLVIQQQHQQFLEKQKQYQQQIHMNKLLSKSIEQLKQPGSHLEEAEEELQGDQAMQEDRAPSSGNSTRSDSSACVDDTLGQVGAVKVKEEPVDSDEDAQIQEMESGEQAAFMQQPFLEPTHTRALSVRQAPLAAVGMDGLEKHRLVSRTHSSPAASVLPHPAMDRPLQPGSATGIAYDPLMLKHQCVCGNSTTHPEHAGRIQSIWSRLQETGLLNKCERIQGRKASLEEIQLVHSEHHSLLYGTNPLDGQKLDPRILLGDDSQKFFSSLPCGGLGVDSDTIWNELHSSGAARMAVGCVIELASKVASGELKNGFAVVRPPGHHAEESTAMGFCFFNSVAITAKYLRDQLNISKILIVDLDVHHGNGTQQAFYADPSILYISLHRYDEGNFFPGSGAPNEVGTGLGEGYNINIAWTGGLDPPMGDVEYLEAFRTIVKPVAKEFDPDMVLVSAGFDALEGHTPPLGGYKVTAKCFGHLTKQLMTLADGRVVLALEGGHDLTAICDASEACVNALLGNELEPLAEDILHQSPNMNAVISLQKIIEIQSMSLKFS
T4 sequence (Q92769 whole entry): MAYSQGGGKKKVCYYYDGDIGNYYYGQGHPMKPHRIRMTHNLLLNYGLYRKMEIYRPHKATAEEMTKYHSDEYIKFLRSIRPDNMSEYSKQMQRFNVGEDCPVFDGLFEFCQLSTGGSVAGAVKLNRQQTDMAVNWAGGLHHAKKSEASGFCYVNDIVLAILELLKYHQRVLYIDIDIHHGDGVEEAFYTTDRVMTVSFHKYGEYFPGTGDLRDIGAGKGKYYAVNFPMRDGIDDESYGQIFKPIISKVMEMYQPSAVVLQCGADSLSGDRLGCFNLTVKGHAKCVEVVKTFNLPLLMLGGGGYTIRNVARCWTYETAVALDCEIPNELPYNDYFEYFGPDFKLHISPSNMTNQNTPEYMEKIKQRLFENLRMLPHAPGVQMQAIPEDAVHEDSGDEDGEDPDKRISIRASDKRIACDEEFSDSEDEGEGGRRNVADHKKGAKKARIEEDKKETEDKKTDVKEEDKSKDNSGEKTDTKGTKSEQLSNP
T6 sequence (O15379 whole entry, the tested form may be a part): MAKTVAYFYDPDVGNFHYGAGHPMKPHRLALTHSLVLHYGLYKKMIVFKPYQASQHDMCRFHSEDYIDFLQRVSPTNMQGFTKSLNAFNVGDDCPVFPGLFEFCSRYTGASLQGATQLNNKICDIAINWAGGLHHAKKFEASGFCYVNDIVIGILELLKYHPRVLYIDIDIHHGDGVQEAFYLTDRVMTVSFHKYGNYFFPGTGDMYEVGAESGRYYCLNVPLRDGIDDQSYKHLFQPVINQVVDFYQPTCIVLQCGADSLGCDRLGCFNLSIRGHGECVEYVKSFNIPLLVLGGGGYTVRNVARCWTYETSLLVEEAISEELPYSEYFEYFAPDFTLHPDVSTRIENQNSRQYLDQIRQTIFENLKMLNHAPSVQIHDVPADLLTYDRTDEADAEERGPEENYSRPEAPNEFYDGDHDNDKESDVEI

With `Cc1ncsc1-c1ccc(CNC(=O)[C@@H]2C[C@@H](O)CN2C(=O)[C@@H](NC(=O)CCCCCCCCCCC(=O)Nc2ccc(C(=O)Nc3cc(-c4ccccc4)ccc3N)cc2)C(C)(C)C)cc1` as the molecule, how does the pIC50 [1] read?
Its pIC50 is 4.77.

With `Cn1cc(CNCC2CCN(c3ncc(C(=O)NO)cn3)CC2)c2ccccc21` [QUISINOSTAT] as the molecule, how does the pIC50 (Histone deacetylase 9 [2]) read?
Its pIC50 is 7.49.

And the pIC50 (Histone deacetylase 5 [3])?
Its pIC50 is 8.40.

What about the pIC50 [4] of the same molecule?
The pIC50 was 9.30.

What does the source list for `C/C=C1\NC(=O)[C@@H](C)NC(=O)[C@@H](C(C)C)NC(=O)C[C@@H](CCC)OC(=O)[C@H](C(C)C)NC1=O`?
pKi (Histone deacetylase 2 [5]): 6.43; pKi (Histone deacetylase 1 [6]): 6.16; pKi [7]: 6.10

Which results are given for `Cc1cn(C)nc1CN1CCC(c2ccc(C(=O)Nc3ccccc3N)cc2)CC1`?
pIC50 (Histone deacetylase 1 [8]): 7.00; pIC50 (Histone deacetylase 2 [9]): 6.22; pIC50 (Histone deacetylase 3 [10]): 6.22

With `CN(C)Cc1c(C(=O)NCCOc2ccc(C(=O)NO)cc2)oc2ccccc12` [ABEXINOSTAT] as the molecule, how does the pIC50 (Histone deacetylase 9 [2]) read?
The pIC50 was 6.77.

What about the pIC50 (Histone deacetylase 5 [3]) of the same molecule?
The pIC50 was 7.32.

With `CCN(CC)Cc1ccc2cc(COC(=O)Nc3ccc(C(=O)NO)cc3)ccc2c1` [GIVINOSTAT] as the molecule, how does the pIC50 [11] read?
Its pIC50 is 6.48.

And the pIC50 (Histone deacetylase 5 [12])?
The pIC50 was 6.27.

What about the pIC50 (Histone deacetylase 4 [13]) of the same molecule?
The pIC50 was less than 6.00.

And the pIC50 (Histone deacetylase 9 [14])?
Its pIC50 is 6.29.

What does the source list for `N=C1Sc2ccccc2C2=NCCCN12`?
pIC50 [15]: 5.15; pIC50 (Histone deacetylase 3 [16]): < 4.30; pIC50 (Histone deacetylase 1 [17]): 5.40; pIC50 (Histone deacetylase 4 [18]): 5.05

With `Nc1ccccc1NC(=O)c1ccc(CNc2nccc(-c3cccnc3)n2)cc1` [MOCETINOSTAT] as the molecule, how does the pIC50 (Histone deacetylase 11) read?
The pIC50 was 6.22.

With `COc1cccc2c1c(O)c(C(=O)N(C)c1ccc(C(F)(F)F)cc1)c(=O)n2C` [TASQUINIMOD] as the molecule, how does the pKd (Histone deacetylase 4 [19]) read?
The pKd was 8.00.

With `CCCCNNC(=O)c1ccc(Br)cc1` as the molecule, how does the pIC50 (Histone deacetylase 8) read?
The pIC50 was 5.70.

And the pIC50 [20]?
The pIC50 was 4.82.
